pIC50: −log10 of the molar value.

For this experiment, the system named is Murine L929 cells. The experiment in a line: Necroptosis inhibition assay in L929 cells (mTNFα + zVAD, Sytox Green). The experiment is classed as cell-based. The conditions noted are these: Mus musculus, 10 ng/ml mTNFα and 20 μM zVAD, 6 hours, Sytox Green fluorescence. The procedure: Murine L929 cells (ATCC-CCL-1) were seeded at 10,000 cells/well in a 96-well plate. Cells were treated 48 hours after seeding with 10 ng/ml mTNFα (R&D Systems) and 20 μM zVAD (ChemShuttle) in the presence of different concentrations of compounds ranging from […] to 0.01 μM. Cells treated with 0.1% DMSO or cells treated with TNFα+zVAD were used as control and vehicle respectively.
Assay plates containing cells were incubated for 6 hours at 37° C. and 5% CO2. Necroptosis was assessed using Sytox Green Nucleic Acid Stain (Invitrogen). After incubation, 100 μL of Sytox dye at 2 μM (2×) diluted in HBSS 1× was added in each well and incubated for 15 min at room temperature. Fluorescence (500ex/530em) was recorded using the Cytation 5 microplate reader (Biotek).
Percentage of necroptosis inhibition was calculated as the percent compared to control and vehicle conditions which correspond to 100% and 0% respectively. The half-maximum necroptosis inhibition (IC50) levels were calculated using GraphPad Prism software and are shown in Table 3 (NT represents compound not tested).
Turning to `COc1ccc(-c2ccc3c(Nc4ccc(C5CCN(C)CC5)c(F)c4)ccnc3c2)cc1` [Compound 2, N-(3-fluoro-4-(1-methylpiperidin-4-yl)phenyl)-7-(4-methoxyphenyl)quinolin-4-amine], the pIC50 (as a rule, the negative decadic logarithm of the IC50, by convention in mol/L) was less than 5.00.
With `CN1CCC(c2ccc(Nc3ccnc4cc(-c5ccccc5F)ccc34)nc2)CC1` [Compound 3, 7-(2-fluorophenyl)-N-(5-(1-methylpiperidin-4-yl)pyridin-2-yl)quinolin-4-amine] the figure was less than 5.00.
On to `CN1CCC(c2ccc(Nc3ccc4nccc(Nc5ccc6scnc6c5)c4c3)cc2F)CC1` [Compound 4, N4-(benzo[d]thiazol-5-yl)-N6-(3-fluoro-4-(1-methylpiperidin-4-yl)phenyl)quinoline-4,6-diamine], for which the pIC50 is less than 5.00.
On to `CN1CCC(c2ccc(Nc3ccnc4cc(-c5ccccc5F)ccc34)cc2F)CC1` [Compound 5, N-(3-fluoro-4-(1-methylpiperidin-4-yl)phenyl)-7-(2-fluorophenyl)quinolin-4-amine], for which the pIC50 was less than 5.00.
On to `CN1CCC(c2ccc(Nc3ccnc4cc(-c5ccccn5)ccc34)cc2F)CC1` [Compound 6, N-(3-fluoro-4-(1-methylpiperidin-4-yl)phenyl)-7-(pyridin-2-yl)quinolin-4-amine], for which the pIC50 was less than 5.00.
Next, `COc1ccc(-c2ccc3c(Nc4ccc(C5CCN(C)CC5)cn4)ccnc3c2)cc1` [Compound 7, 7-(4-methoxyphenyl)-N-(5-(1-methylpiperidin-4-yl)pyridin-2-yl)quinolin-4-amine]: less than 5.00; `CN1CCC(c2ccc(Nc3ccnc4cc(-c5ccccn5)ccc34)nc2)CC1` [Compound 8, N-(5-(1-methylpiperidin-4-yl)pyridin-2-yl)-7-(pyridin-2-yl)quinolin-4-amine]: less than 5.00; `CN1CCC(c2ccc(Nc3ccc4nccc(Nc5ccc6scnc6c5)c4c3)nc2)CC1` [Compound 9, N4-(benzo[d]thiazol-5-yl)-N6-(5-(1-methylpiperidin-4-yl)pyridin-2-yl)quinoline-4,6-diamine]: less than 5.00.
Regarding `Cc1ccc(Oc2ccnc3cc(-c4ccc(CN5CCN(C)CC5)c(F)c4)ccc23)cc1` [Compound 10, 7-(3-fluoro-4-((4-methylpiperazin-1-yl)methyl)phenyl)-4-(p-tolyloxy)quinoline], the pIC50 is less than 5.00.
On to `c1cc(Nc2ccc3scnc3c2)c2cc(-c3ccc(N4CCOCC4)cc3)ccc2n1` [Compound 18, N-(6-(4-morpholinophenyl)quinolin-4-yl)benzo[d]thiazol-5-amine], for which the pIC50 was more than 5.00.
With `COc1ccc(Nc2ccnc3ccc(-c4ccc(N5CCN(C)CC5)cc4)cc23)cc1OC` [Compound 19, N-(3,4-dimethoxyphenyl)-6-(4-(4-methylpiperazin-1-yl)phenyl)quinolin-4-amine], the pIC50 is less than 5.00.
In the case of `CN1CCN(c2ccc(-c3ccc4nccc(Nc5ccc(Cl)c(Cl)c5)c4c3)cc2)CC1` [Compound 20, N-(3,4-dichlorophenyl)-6-(4-(4-methylpiperazin-1-yl)phenyl)quinolin-4-amine], the pIC50 is more than 5.00.
As for `CN1CCN(c2ccc(-c3ccc4nccc(Nc5ccc6scnc6c5)c4c3)cn2)CC1` [Compound 24, N-(6-(6-(4-methylpiperazin-1-yl)pyridin-3-yl)quinolin-4-yl)benzo[d]thiazol-5-amine], the negative logarithm of the IC50 (pIC50) was more than 5.00.
As to `c1cc(Nc2ccc3scnc3c2)c2cc(-c3ccc(N4CCCCC4)nc3)ccc2n1` [Compound 25, N-(6-(6-(piperidin-1-yl)pyridin-3-yl)quinolin-4-yl)benzo[d]thiazol-5-amine], the pIC50 was less than 5.00.
Consider `Nc1nc2cc(Nc3ccnc4ccc(-c5ccc(CN6CCCC6)cc5F)cc34)ccc2s1` [Compound 26, N5-(6-(2-fluoro-4-(pyrrolidin-1-ylmethyl)phenyl)quinolin-4-yl)benzo[d]thiazole-2,5-diamine], for which the pIC50 was less than 5.00.
In the case of `c1cc(Nc2ccc3scnc3c2)c2cc(-c3ccc(N4CCCC4)cc3)ccc2n1` [Compound 30, N-(6-(4-(pyrrolidin-1-yl)phenyl)quinolin-4-yl)benzo[d]thiazol-5-amine], the pIC50 is less than 5.00.
On to `COc1ccc(Nc2ccnc3ccc(-c4ccc(CN5CCN(C)CC5)cc4F)cc23)cc1OC` [Compound 32, N-(3,4-dimethoxyphenyl)-6-(2-fluoro-4-((4-methylpiperazin-1-yl)methyl)phenyl)quinolin-4-amine], for which the pIC50 is less than 5.00.
For `CN1CCN(Cc2ccc(-c3ccc4nccc(Nc5ccc(Cl)c(F)c5)c4c3)c(F)c2)CC1` [Compound 33, N-(4-chloro-3-fluorophenyl)-6-(2-fluoro-4-((4-methylpiperazin-1-yl)methyl)phenyl)quinolin-4-amine], the pIC50 is more than 5.00.
Take `CC(C)(C)OC(=O)N1CCN(Cc2ccc(-c3ccc4nccc(Nc5ccc6scnc6c5)c4c3)c(F)c2)CC1` [Compound 38, tert-butyl 4-(4-(4-(benzo[d]thiazol-5-ylamino)quinolin-6-yl)-3-fluorobenzyl)piperazine-1-carboxylate]: the negative logarithm of the IC50 (pIC50) was more than 5.00.
In the case of `N#Cc1cc(-c2ccc3nccc(Nc4ccc5scnc5c4)c3c2)ccc1N1CCCC1` [Compound 39, 5-(4-(benzo[d]thiazol-5-ylamino)quinolin-6-yl)-2-(pyrrolidin-1-yl)benzonitrile], the pIC50 was less than 5.00.
With `Fc1cc(CN2CCC(C(F)(F)F)CC2)ccc1-c1ccc2nccc(Nc3ccc4scnc4c3)c2c1` [Compound 42, N-(6-(2-fluoro-4-((4-(trifluoromethyl)piperidin-1-yl)methyl)phenyl)quinolin-4-yl)benzo[d]thiazol-5-amine], the pIC50 is more than 5.00.
With `c1cc(Nc2ccc3scnc3c2)c2cc(-c3ccc(OCCN4CCCCC4)cc3)ccc2n1` [Compound 44, N-(6-(4-(2-(piperidin-1-yl)ethoxy)phenyl)quinolin-4-yl)benzo[d]thiazol-5-amine], the pIC50 was more than 5.00.
Regarding `Fc1ccc(CN2CCCCC2)cc1-c1ccc2nccc(Nc3ccc4scnc4c3)c2c1` [Compound 55, N-(6-(2-fluoro-5-(piperidin-1-ylmethyl)phenyl)quinolin-4-yl)benzo[d]thiazol-5-amine], the pIC50 is more than 5.00.
Take `Fc1ccc(CN2CCCCC2)cc1-c1ccc2c(Nc3ccc4scnc4c3)ccnc2c1` [Compound 56, N-(7-(2-fluoro-5-(piperidin-1-ylmethyl)phenyl)quinolin-4-yl)benzo[d]thiazol-5-amine]: the pIC50 was less than 5.00.
For the compound `CC(C)(C)OC(=O)N1C2CCC1CN(Cc1ccc(-c3ccc4nccc(Nc5ccc6scnc6c5)c4c3)c(F)c1)C2` [Compound 57, tert-butyl 3-(4-(4-(benzo[d]thiazol-5-ylamino)quinolin-6-yl)-3-fluorobenzyl)-3,8-diazabicyclo[3.2.1]octane-8-carboxylate], the pIC50 was less than 5.00.
Take `CC(C)(C)OC(=O)N1C2CCC1CN(Cc1ccc(-c3ccc4c(Nc5ccc6scnc6c5)ccnc4c3)c(F)c1)C2` [Compound 58, tert-butyl 3-(4-(4-(benzo[d]thiazol-5-ylamino)quinolin-7-yl)-3-fluorobenzyl)-3,8-diazabicyclo[3.2.1]octane-8-carboxylate]: the pIC50 was more than 5.00.
Next, `O=C(CO)N1CCC(c2ccc(-c3ccc4nccc(Nc5ccc6scnc6c5)c4c3)cc2)CC1` [Compound 239, 1-(4-(4-(4-(benzo[d]thiazol-5-ylamino)quinolin-6-yl)phenyl)piperidin-1-yl)-2-hydroxyethan-1-one]: more than 6.00.
With `c1cc(Nc2ccc3scnc3c2)c2cc(-c3ccc(C4CCNCC4)cc3)ccc2n1` [Compound 240, N-(6-(4-(piperidin-4-yl)phenyl)quinolin-4-yl)benzo[d]thiazol-5-amine] the figure was less than 6.00.
As for `O=C(c1ccc(-c2ccc3nccc(Nc4ccc5scnc5c4)c3c2)c(F)c1)N1CCCC1` [Compound 241, (4-(4-(benzo[d]thiazol-5-ylamino)quinolin-6-yl)-3-fluorophenyl)(pyrrolidin-1-yl)methanone], the pIC50 was 6.41.
With `O=C(c1ccc(-c2ccc3c(Nc4ccc5scnc5c4)ccnc3c2)c(F)c1)N1CCCC1` [Compound 242, (4-(4-(benzo[d]thiazol-5-ylamino)quinolin-7-yl)-3-fluorophenyl)(pyrrolidin-1-yl)methanone] the figure was more than 6.00.
As for `O=C(c1ccc(-c2ccc3nccc(Nc4ccc5scnc5c4)c3c2)c(F)c1)N1CCOCC1` [Compound 243, (4-(4-(benzo[d]thiazol-5-ylamino)quinolin-6-yl)-3-fluorophenyl)(morpholino)methanone], the pIC50 is more than 6.00.
Turning to `CN(C)C(=O)c1ccc(-c2ccc3nccc(Nc4ccc5scnc5c4)c3c2)c(F)c1` [Compound 245, 4-(4-(benzo[d]thiazol-5-ylamino)quinolin-6-yl)-3-fluoro-N,N-dimethylbenzamide], the pIC50 was more than 6.00.
On to `CN(C)C(=O)c1ccc(-c2ccc3c(Nc4ccc5scnc5c4)ccnc3c2)c(F)c1` [Compound 246, 4-(4-(benzo[d]thiazol-5-ylamino)quinolin-7-yl)-3-fluoro-N,N-dimethylbenzamide], for which the pIC50 was more than 6.00.
Next, `CC1CCCCN1C(=O)c1ccc(-c2ccc3nccc(Nc4ccc5scnc5c4)c3c2)c(F)c1` (centres unmarked) [Compound 247, (4-(4-(benzo[d]thiazol-5-ylamino)quinolin-6-yl)-3-fluorophenyl)(2-methylpiperidin-1-yl)methanone]: less than 6.00.
With `CC1CCCCN1C(=O)c1ccc(-c2ccc3c(Nc4ccc5scnc5c4)ccnc3c2)c(F)c1` (centres unmarked) [Compound 248, (4-(4-(benzo[d]thiazol-5-ylamino)quinolin-7-yl)-3-fluorophenyl)(2-methylpiperidin-1-yl)methanone] the figure was more than 6.00.

The values are drawn from US20250092031A1, “RIPK3 INHIBITORS AND METHODS OF USE” (Momentum Therapeutics, Inc., priority 2023, published 2025).
